Read-outs that look alike come from different tables or passages of the source.

What all share (assay type): cell-based
In assay [1] the target is T1, PPARγ (Homo sapiens, UniProt P37231).
T1 sequence (P37231 238-505 limits assumed): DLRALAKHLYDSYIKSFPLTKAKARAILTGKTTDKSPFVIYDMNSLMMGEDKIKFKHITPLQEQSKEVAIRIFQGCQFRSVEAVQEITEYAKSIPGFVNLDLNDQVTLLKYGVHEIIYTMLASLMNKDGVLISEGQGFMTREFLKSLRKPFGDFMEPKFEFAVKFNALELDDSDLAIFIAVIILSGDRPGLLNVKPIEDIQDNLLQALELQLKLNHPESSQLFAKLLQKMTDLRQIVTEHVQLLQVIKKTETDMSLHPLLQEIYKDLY
Nature of the assay: cell-based. The following applies: read-out: Transactivation activity EC50 PPARγ.

For assay [2], the target named is T2, RXRα (Homo sapiens, UniProt P19793).
T2 construct: expressed in transfected cells
T2 sequence (P19793 1-462): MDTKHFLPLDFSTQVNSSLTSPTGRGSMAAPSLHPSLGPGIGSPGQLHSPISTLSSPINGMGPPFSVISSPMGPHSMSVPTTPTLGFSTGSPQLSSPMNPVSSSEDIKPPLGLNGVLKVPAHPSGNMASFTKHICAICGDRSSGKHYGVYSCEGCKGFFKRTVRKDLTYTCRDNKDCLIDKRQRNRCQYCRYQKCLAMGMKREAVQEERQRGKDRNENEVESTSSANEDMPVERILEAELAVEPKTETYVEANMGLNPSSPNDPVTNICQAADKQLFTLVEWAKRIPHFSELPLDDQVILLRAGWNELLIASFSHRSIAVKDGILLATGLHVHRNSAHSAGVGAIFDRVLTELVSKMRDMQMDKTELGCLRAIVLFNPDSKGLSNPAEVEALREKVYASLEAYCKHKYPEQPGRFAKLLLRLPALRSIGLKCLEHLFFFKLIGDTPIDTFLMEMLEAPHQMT
Briefly: Nuclear receptor cross-reactivity transactivation, RXRα.

Assay [3] addresses T3, PPARδ (Homo sapiens, UniProt Q03181).
T3 sequence (Q03181 171-441 limits assumed): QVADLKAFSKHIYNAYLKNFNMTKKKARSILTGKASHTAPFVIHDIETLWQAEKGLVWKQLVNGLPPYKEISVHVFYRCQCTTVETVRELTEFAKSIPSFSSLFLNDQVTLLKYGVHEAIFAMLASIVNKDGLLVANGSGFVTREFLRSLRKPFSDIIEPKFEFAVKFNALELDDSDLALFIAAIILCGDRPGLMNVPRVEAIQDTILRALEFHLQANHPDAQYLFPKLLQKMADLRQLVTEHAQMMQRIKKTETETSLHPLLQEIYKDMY
Nature of the assay: cell-based. The following applies: PPAR-GAL4 chimeric receptors, transiently transfected HEK-293 cells; ia = inactive at 10 μM; read-out: Transactivation activity EC50 PPARδ.

Assay [4] deals with T4, RARα (Homo sapiens, UniProt P10276).
T4 construct: expressed in transfected cells
T4 sequence (P10276 1-462): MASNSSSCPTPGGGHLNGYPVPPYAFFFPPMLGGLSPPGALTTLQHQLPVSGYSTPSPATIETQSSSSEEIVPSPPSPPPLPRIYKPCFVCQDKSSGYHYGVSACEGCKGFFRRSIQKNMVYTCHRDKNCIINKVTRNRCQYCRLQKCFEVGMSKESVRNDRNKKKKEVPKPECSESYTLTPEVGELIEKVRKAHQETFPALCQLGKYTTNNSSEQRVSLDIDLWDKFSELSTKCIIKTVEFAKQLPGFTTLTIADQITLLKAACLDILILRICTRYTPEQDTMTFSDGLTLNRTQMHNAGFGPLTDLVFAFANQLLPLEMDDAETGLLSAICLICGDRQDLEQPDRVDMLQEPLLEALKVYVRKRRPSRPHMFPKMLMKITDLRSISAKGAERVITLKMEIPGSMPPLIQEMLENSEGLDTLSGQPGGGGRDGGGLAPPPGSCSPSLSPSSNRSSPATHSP
Briefly: Nuclear receptor cross-reactivity transactivation, RARα.

For assay [5], the target named is T5, VDR (Homo sapiens, UniProt P11473).
T5 construct: expressed in transfected cells
T5 sequence (P11473 1-427): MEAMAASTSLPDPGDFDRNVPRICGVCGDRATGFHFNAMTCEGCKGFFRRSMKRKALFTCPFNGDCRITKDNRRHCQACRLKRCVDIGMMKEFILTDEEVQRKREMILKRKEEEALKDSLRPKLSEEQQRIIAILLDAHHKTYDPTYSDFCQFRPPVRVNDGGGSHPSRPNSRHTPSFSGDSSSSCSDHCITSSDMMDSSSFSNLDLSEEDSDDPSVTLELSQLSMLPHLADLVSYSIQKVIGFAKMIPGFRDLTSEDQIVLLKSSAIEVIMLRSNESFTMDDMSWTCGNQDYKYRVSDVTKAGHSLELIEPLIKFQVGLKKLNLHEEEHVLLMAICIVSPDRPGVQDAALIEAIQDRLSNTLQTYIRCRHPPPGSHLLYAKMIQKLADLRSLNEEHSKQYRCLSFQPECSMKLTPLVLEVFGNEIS
Nature of the assay: Nuclear receptor cross-reactivity transactivation, VDR.

In assay [6] the target is T6, PPARα (Homo sapiens, UniProt Q07869).
T6 sequence (Q07869 200-468 limits assumed): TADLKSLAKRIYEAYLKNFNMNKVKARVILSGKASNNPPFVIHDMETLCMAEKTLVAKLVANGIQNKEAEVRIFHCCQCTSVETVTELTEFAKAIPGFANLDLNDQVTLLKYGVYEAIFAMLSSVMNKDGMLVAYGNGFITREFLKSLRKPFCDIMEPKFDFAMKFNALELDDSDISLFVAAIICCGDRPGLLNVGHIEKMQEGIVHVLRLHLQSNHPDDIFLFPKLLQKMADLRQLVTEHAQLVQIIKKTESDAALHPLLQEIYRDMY
Nature of the assay: PPARα-GAL4 chimeric receptor transactivation in HEK-293 cells. The settings on record: PPAR-GAL4 chimeric receptors, transiently transfected HEK-293 cells; ia = inactive at 10 μM.

For assay [7], the target named is T7, PPARγ (Homo sapiens, UniProt P37231).
T7 construct: expressed in transfected cells
T7 sequence (P37231 1-505): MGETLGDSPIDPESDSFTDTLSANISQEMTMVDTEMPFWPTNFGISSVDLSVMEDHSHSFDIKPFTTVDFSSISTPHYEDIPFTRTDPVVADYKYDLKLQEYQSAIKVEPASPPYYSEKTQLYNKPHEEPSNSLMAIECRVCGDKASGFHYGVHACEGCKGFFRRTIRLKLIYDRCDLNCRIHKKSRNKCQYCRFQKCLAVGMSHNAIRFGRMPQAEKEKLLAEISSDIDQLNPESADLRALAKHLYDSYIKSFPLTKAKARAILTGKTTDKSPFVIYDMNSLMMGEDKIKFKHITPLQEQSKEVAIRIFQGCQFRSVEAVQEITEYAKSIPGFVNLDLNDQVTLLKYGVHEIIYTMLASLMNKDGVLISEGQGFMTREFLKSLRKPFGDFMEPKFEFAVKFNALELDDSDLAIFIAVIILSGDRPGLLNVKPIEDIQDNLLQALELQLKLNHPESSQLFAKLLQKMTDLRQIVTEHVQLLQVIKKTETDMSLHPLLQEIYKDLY
Nature of the assay: Nuclear receptor cross-reactivity transactivation, PPARγ.

For assay [8], the target named is T8, LXRα (Homo sapiens, UniProt Q13133).
T8 construct: expressed in transfected cells
T8 sequence (Q13133 1-447): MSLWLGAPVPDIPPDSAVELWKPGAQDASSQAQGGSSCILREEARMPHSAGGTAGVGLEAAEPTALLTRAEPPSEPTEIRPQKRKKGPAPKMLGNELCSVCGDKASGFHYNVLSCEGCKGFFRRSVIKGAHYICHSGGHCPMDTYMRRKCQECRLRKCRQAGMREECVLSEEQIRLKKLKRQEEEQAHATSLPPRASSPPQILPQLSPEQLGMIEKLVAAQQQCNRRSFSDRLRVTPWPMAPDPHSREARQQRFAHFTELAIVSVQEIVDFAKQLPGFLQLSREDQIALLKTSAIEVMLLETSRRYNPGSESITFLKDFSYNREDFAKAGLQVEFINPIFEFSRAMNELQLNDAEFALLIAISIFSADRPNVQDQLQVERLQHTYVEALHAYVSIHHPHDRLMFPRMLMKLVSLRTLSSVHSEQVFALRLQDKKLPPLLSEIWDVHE
Briefly: Nuclear receptor cross-reactivity transactivation, LXRα.

In assay [9] the target is T9, PPARα (Canis lupus familiaris, UniProt Q95N78).
T9 construct: expressed in transfected cells
T9 sequence (Q95N78 1-468): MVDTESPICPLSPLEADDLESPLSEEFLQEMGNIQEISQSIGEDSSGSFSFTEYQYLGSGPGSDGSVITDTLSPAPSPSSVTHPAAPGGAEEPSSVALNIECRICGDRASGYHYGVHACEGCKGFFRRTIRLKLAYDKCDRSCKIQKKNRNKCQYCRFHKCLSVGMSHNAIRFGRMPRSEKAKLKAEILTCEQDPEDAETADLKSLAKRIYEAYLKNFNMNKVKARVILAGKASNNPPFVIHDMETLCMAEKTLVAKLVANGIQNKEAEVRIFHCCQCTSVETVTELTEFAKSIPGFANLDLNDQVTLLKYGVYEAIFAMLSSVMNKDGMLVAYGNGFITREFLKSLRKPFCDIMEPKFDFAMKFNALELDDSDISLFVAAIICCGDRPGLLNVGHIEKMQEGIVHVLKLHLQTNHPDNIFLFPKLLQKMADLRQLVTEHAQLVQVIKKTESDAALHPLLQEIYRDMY
Briefly: Dog PPARα transactivation (species differences). The settings on record: CHO-K1 cells (footnote of Table 1).

The target of assay [10] is T10, PPARα (Rattus norvegicus, UniProt P37230).
T10 construct: expressed in transfected cells
T10 sequence (P37230 1-468): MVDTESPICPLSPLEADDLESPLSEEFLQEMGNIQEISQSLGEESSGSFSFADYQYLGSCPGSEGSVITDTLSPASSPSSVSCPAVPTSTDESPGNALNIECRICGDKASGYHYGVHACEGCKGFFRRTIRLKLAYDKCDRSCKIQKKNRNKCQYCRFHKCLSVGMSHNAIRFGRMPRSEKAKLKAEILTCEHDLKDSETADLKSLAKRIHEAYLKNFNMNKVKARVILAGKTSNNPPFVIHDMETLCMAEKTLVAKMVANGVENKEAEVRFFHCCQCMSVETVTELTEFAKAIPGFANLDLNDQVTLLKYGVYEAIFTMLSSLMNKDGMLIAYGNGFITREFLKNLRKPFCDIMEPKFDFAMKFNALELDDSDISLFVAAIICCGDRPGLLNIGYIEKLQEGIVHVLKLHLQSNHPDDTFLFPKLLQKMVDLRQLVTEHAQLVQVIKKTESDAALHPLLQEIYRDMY
Nature of the assay: Rat PPARα transactivation (species differences). The settings on record: CHO-K1 cells (footnote of Table 1).

Assay [11] deals with T6, PPARα. Nature of the assay: PPARα-GAL4 chimeric receptor transactivation in CHO-K1 cells. The following applies: human PPARα; CHO-K1 cells (footnote of Table 1); read-out: Transactivation activity EC50 PPARα Human.
The mark [12] stands for this setting: concentrations up to 300 nM (Figure 7).
[13] abbreviates: concentrations up to 1 μM (Figure 4).

One may read the EC50 as the midpoint of the concentration-response curve. In the case of `CCCCOc1ccc(C[C@H](CC)C(=O)O)cc1CNC(=O)c1ccc(C(F)(F)F)cc1F` [Compound 65, (S)-2-{3-[(2-fluoro-4-trifluoromethylbenzoylamino)methyl]-4-buthoxy-benzyl}butyric acid], the EC50 turned out to be 1100 nM in assay [1], 0.91 nM in assay [3] and 250 nM in assay [6]. Further, the “activation of RXRα” value in assay [2] (setting [12]) is recorded as “did not significantly activate”. The “activation of RARα” value in assay [4] (setting [12]) is “did not significantly activate”. Further, the “activation of VDR” value in [5] (setting [12]) is recorded as “did not significantly activate”. In addition, the “activation of PPARγ” value in [7] (setting [12]) was “did not significantly activate”. For the same compound, the “activation of LXRα” value in assay [8] (setting [12]) was “did not significantly activate”.
Turning to `CC[C@@H](Cc1ccc(OC)c(C(=O)NCc2ccc(C(F)(F)F)cc2)c1)C(=O)O` [KCL, (S)-2-[4-methoxy-3-(4-trifluoromethylbenzylcarbamoyl)phenylmethyl]butyric acid], the EC50 is 160 nM in assay [9], 5200 nM in assay [10] and 60 nM in assay [11].
For `CC[C@@H](Cc1ccc(OC)c(CNC(=O)c2ccc(C(F)(F)F)cc2F)c1)C(=O)O` [Compound 41, (S)-2-{3-[(2-fluoro-4-trifluoromethylbenzoylamino)methyl]-4-methoxybenzyl}butyric acid], the EC50 in [1] (PPAR-GAL4 chimeric receptors, transiently transfected HEK-293 cells, ia = inactive at 10 μM) came out at 1900 nM; in [3], 12 nM; in assay [6], 10 nM. In addition, the “activation of RXRα” value in assay [2] (setting [13]) is reported as “did not significantly activate”. The “activation of RARα” value in assay [4] (setting [13]) is on record as “did not significantly activate”. Moreover, the “activation of VDR” value in [5] (setting [13]) is given as “did not significantly activate”. For the same compound, the “activation of PPARγ” value in assay [7] (setting [13]) was “did not significantly activate”. Besides, the “activation of LXRα” value in assay [8] (setting [13]) is “did not significantly activate”.

(Values after PMC2430034, “Structural Development Studies of Subtype-Selective Ligands for Peroxisome Proliferator-Activated Receptors (PPARs) Based on the 3,4-Disubstituted Phenylpropanoic Acid Scaffold as a Versatile Template” (PPAR Research, 2008).)
